Measurements: article PMC6261997, “Synergistic enzymatic and bioorthogonal reactions for selective prodrug activation in living systems” (Nature Communications, 2018)

Columns and labels:
Saos-2 cells = assay: MTT cell viability / cytotoxicity assay, Saos-2 cells; assay type: cell-based; conditions: MTT assay and clonogenic assay
Protocol: Cells were plated in flat-bottom 96-well plates at a density of 3 × 10^3 cells per well. After 12 h of cell attachment, the cell culture medium was replaced with 100 μL of pre-warmed media containing the compounds at different concentrations. After 24–72 h of incubation, cell proliferation was assessed by the MTT assay. A fresh mixture of 10 μL of thiazolyl blue tetrazolium bromide (MTT) and 90 μL of medium were freshly added to each well. After incubation for 4 h, the medium was gently removed. The formazan crystals that formed were dissolved in 110 μL of DMSO, and the absorbance was subsequently measured with a plate reader (Perkin Elmer) at 490 nm. EC50 values were calculated using Origin software. To measure the cytotoxicity of 2, HeLa cells, HUVECs, Saos-2 cells and CCC-HEH-2 cells were incubated with 100 μL of 1–500 μM 2 for 24 h, and then, cell viability was determined. To measure the cytotoxicity of TCO-Dox or Dox, HeLa cells, HUVECs, Saos-2 cells or CCC-HEH-2 cells were incubated with 200 μL of 0.001–10 μM TCO-Dox or Dox for 72 h, and the cell viability was determined. To determine the cytotoxicity of activated Dox, HeLa cells, HUVECs, Saos-2 cells or CCC-HEH-2 cells were pre-incubated with 100 μL of 500 μM 2 for 6 h, and then, 2 was removed and 200 μL of 0.0001–10 μM TCO-Dox was added for 72 h of incubation, and cell viability was determined. […]
Prodrug activation efficacy in cells: Cells were plated on flat bottom 96-well plates at a density of 3x10^3 cells per well. After 12 h attachment, cells were incubated with 100 µL 500 µM of 2 for 6 h before removing 2 and the addition of 200 µL 0.0001-10 µM of TCO-Dox. Cells were further incubated for 72 h before measuring the viability by the MTT […]
Clonogenic assay of cells in vitro: Clonogenic assay was performed according to the standard protocol.6 2×10^5 attached cells were treated with 500 µM of 2 for 6 h in culture dishes. Cells were then detached, re-suspended in cultural medium and counted accurately. The cell suspension was diluted into the desired seeding concentration and cells were seeded in 6-well plates at a density of 200 cells per well for CCC-HEH-2 and 400 cells per well for HeLa, Saos-2 and HUVECs. After incubation for 10 days, the cultural medium was removed and cells were rinsed carefully with PBS. 2 mL of a mixture of 6.0% (vol/vol) glutaraldehyde and 0.5% (wt/vol) crystal violet was added and kept for 30 min.
The glutaraldehyde crystal violet mixture was removed carefully. The colonies were rinsed with water and dried in normal air at room temperature. The number of the colonies was counted using a stereomicroscope.
When untreated cells are plated as a single-cell suspension at low densities, they will grow to colonies. The plating efficiency (PE) is the ratio of the number of colonies to the […]
(Supplementary Equation 1)
The number of colonies that arise after treatment of cells, expressed in terms of PE, is called the surviving fraction (SF): […]

[1] = Self-assembly and hydrogelation on addition of alkaline phosphatase (ALP); assay type: physicochemical
Protocol: The synthesis of the assembly precursor (NapK(Tz)YpF, 2, Fig. 2a) was straightforward (see Supplementary Methods for a detailed protocol). Because KYF was determined to be an excellent self-assembly motif in a tri-peptide census survey, we constructed our assembling molecules based on this sequence. The conjugation of a strong π–π stacking moiety, namely, a naphthalene group, to the N terminus may further enhance the self-assembly potential of this molecule. Phosphorylation on tyrosine (Y) enabled the responsiveness of this motif to phosphatase. All of these components were sequentially conjugated via typical Fmoc-based solid-phase peptide synthesis (SPPS) to yield NapKYpF (1). The capability of self-assembly and hydrogelation of 1 was confirmed by the addition of 10 U mL^−1 alkaline phosphatase (ALP) into a solution of 1 (Supplementary Fig. 1). The dephosphorylated product of 1 formed transparent hydrogels with a network of uniform nanofibres (Supplementary Fig. 2), and the critical hydrogelation concentration was 1.0 mg mL^−1. The ε-amine of Lys on 1 was conjugated with the Tz derivative Tz-COOH (2-(4-(6-methyl-1,2,4,5-tetrazin-3-yl)phenyl) acetic acid) via an NHS-mediated ester–amide exchange reaction to yield 2. […] Upon the addition of ALP (10 U mL^−1) into the solution of 2, a transparent purple hydrogel was formed within 1 h (Fig. 2b inset), and the critical hydrogelation concentration was 1.0 mg mL^−1 (Supplementary Fig. 3). Similar to the formation of a typical hydrogel, investigation by transmission electron microscopy (TEM) confirmed the existence of numerous uniform nanofibres, each with a diameter of approximately 12 nm, which was close to that of hydrogel 1 (Fig. 2b).

HeLa cells = assay: Intracellular Tz accumulation by fluorescence liberation from TCO-CMR, HeLa cells; assay type: cell-based
Protocol: Next, we tested the intracellular accumulation of Tz via EISA in an attempt to differentiate cancer cells from normal cells. First, we investigated the accumulation of Tz in HeLa cells and HUVECs over time via fluorescence liberation from TCO-CMR (Fig. 3a). […] The cells were then washed with PBS thoroughly before the addition of an excessive amount of TCO-CMR (100 μL, 50 μM), and the reaction of TCO-CMR with the intracellular accumulated Tz was allowed to proceed for up to 24 h (Supplementary Fig. 8). In this experimental setting, the total liberated fluorescence was proportional to the amount of 3 accumulated inside the cells. […] Therefore, the optimized concentration of 2 (e.g. 500 μM) and incubation time (e.g. 6 h) were selected to differentiate between cancer and normal cells according to liberated fluorescence intensity (Fig. 3c). This differentiation was dependent on the considerably different phosphatase activity between these cell lines (Supplementary Fig. 11), allowing EISA to specifically occur in cancer cells as opposed to normal cells.
All cells were purchased from the National Infrastructure of Cell Line Resource (Beijing, China). HeLa cells, HUVECs and CCC-HEH-2 cells were cultured in a humidified CO2 (5%) incubator at 37 °C in DMEM supplemented with 10% foetal bovine serum (FBS, Gibco) and 1% Pen Strep (PS, Gibco). Saos-2 cells were cultured in a humidified CO2 (5%) incubator at 37 °C in McCoy’s 5A medium supplemented with 10% FBS and 1% PS. Cells were plated in flat-bottom 96-well plates (Corning) at a density of 10^4 cells per well and allowed to attach for 12 h. Then, the culture medium was replaced with 100 μL of pre-warmed medium containing 2 at different concentrations (100–500 μM). After incubation for different durations (1–24 h), the cells were rinsed with PBS, and then 100 μL of 50 μM TCO-CMR (dissolved in PBS) was added for real-time detection of the fluorescence intensity of coumarin in a plate reader (Perkin Elmer).

Cc1nnc(-c2ccc(CC(=O)NCCCCC(NC(=O)Cc3ccc4ccccc4c3)C(=O)NC(Cc3ccc(OP(=O)(O)O)cc3)C(=O)NC(Cc3ccccc3)C(=O)O)cc2)nn1 (centres unmarked) [compound 2, NapK(Tz)YpF]
cytotoxicity of 2 against Saos-2 cells (Saos-2 cells): toxic to Saos-2 cells to some extent | time to formation of hydrogel ([1]; ALP 10 U mL^−1): ≤ 1 h | critical hydrogelation concentration ([1]; after addition of 10 U mL^−1 ALP (dephosphorylated product)): 1.0 mg/mL | incubation time at which liberated fluorescence reaches maximum value (HeLa cells; 500 μM 2, then 50 μM TCO-CMR): approximately 6 h | fluorescence emission of liberated coumarin in HeLa cells (HeLa cells; pre-incubated with 400 or 500 μM 2): increased significantly
